Assays:
Assay type in all cases: in vivo, human
[1] = Example 1: adverse events and discontinuations during double-blind treatment
Protocol: A multi-centered, placebo-controlled, randomized, parallel group trial with fixed dose levels and designed to identify appropriate doses of bremelanotide administered by subcutaneous injection in premenopausal females with FSAD and/or HSDD, under the conditions of home use, was conducted. Subjects received a single dose of placebo (subject-blinded) in-clinic followed by 4 weeks of subject-blinded placebo treatment at home (subjects self-administered treatment as needed). Subjects who continued to qualify for the trial then received 2 single in-clinic doses of randomized treatment (double-blind; approximately one week apart), followed by 12 weeks of double-blind treatment at home (subjects self-administered treatment as needed).
Randomization occurred immediately prior to the first in-clinic dose of double-blind treatment. Study drug and placebo was provided as pre-filled syringes in 0.3 mL volume, with subjects instructed on self-administration into the anterior thigh or abdomen.

[2] = system: premenopausal and postmenopausal women with FSAD; assay: Intranasal Phase 2 studies: efficacy, adverse events, discontinuation
Protocol: In the bremelanotide premenopausal arm, 42.5% of the subjects were discontinued due to hypertension, nausea, vomiting or myalgia. Subjects received a 10 mg intranasal dose of bremelanotide, with premenopausal subjects determined to have a mean plasma concentration of 88.5±51.9 ng/mL and a % CV of 58.6, and postmenopausal subjects determined to have a mean plasma concentration of 93.2±68.5 ng/mL and a % CV of 73.5. The minimum and maximum plasma concentration levels for all women at thirty minutes post dose range from 0.0 ng/mL to 207.0 ng/mL.
Results with premenopausal women in a placebo-controlled, randomized, double-blind, parallel group, at-home exploratory study to evaluate the efficacy and safety of intranasally administered bremelanotide in subjects with female sexual arousal disorder (FSAD) were compared against results in the study of Example 1. In the intranasal study, a total of 76 premenopausal subjects were randomized, with 40 subjects to receive bremelanotide and 36 to receive placebo. Twenty-two subjects treated with bremelanotide and 29 treated with placebo completed the study, with 16 subjects who received bremelanotide (40%) discontinuing from the study due to an adverse event. This compares to the study of Example 1, in which as shown by Table 6 only 8% of subjects on the 1.75 mg subcutaneous dose discontinuing due to an adverse event.

[3] = system: healthy adult female subjects; assay: Phase 1 single dose escalation, subcutaneous; vaginal photoplethysmography with visual sexual stimulation
Protocol: In a double-blind, placebo-controlled, single dose, dose escalation Phase 1 study to determine the maximum tolerated dose in healthy adult female subjects, doses of from 0.3 to 5.0 mg (0.3, 1.0, 3.0 and 5.0 mg) of bremelanotide were administered by subcutaneous injection. However, this study specifically excluded women with a diagnosis of FSD, and thus could not determine an effective dose for treatment of FSD. The study did employ a measure of pharmacodynamic effect, defined as an increase of sexual arousal response in the presence of visual sexual stimulation as measured by vaginal blood flow with vaginal photoplethysmography (using a Geer gauge device), which measures vaginal pulse amplitude.

[4] = Adverse events with single-dose SC administration (Trials -14, -06, -10)
Protocol: Subcutaneous dosing was tested in 5 Phase 1 trials (3 in females, 2 in males) and one Phase 2 trial (males). The most common adverse events associated with single-dose SC bremelanotide administration (Trials −14, −06, and −10) were somnolence (30%), flushing (15%), nausea (19%), and vomiting (10%).

[5] = Subcutaneous trials in males: vomiting and tolerability; conditions: for subjects experiencing vomiting (mild or moderate): males
[6] = 10 mg intranasal, premenopausal, 40 subjects randomized

CCCC[C@H](NC(C)=O)C(=O)N[C@H]1CC(=O)NCCCC[C@@H](C(=O)O)NC(=O)[C@H](Cc2c[nH]c3ccccc23)NC(=O)[C@H](CCCNC(=N)N)NC(=O)[C@@H](Cc2ccccc2)NC(=O)[C@H](Cc2c[nH]cn2)NC1=O [bremelanotide, Ac-Nle-cyclo(-Asp-His-D-Phe-Arg-Trp-Lys)-OH]
patients discontinued based on adverse events ([1]; 0.75 mg): 2
patients discontinued based on preset blood pressure change criterion ([1]; 0.75 mg): 4
Any adverse event leading to withdrawal, number of subjects ([1]; 0.75 mg SC (N = 100)): 2
Any adverse event leading to withdrawal, percent of subjects ([1]; 0.75 mg SC (N = 100)): (2%)
Any adverse event, number of subjects ([1]; 0.75 mg SC (N = 100)): 64
Any adverse event, percent of subjects ([1]; 0.75 mg SC (N = 100)): (64%)
Flushing leading to withdrawal, number of subjects ([1]; 0.75 mg SC (N = 100)): 0
Flushing, number of subjects ([1]; 0.75 mg SC (N = 100)): 17
Flushing, percent of subjects ([1]; 0.75 mg SC (N = 100)): (17%)
Headache, number of subjects ([1]; 0.75 mg SC (N = 100)): 9
Headache, percent of subjects ([1]; 0.75 mg SC (N = 100)): (9%)
Hypertension leading to withdrawal, number of subjects ([1]; 0.75 mg SC (N = 100)): 2
Hypertension leading to withdrawal, percent of subjects ([1]; 0.75 mg SC (N = 100)): (2%)
Injection-site pain, number of subjects ([1]; 0.75 mg SC (N = 100)): 6
Injection-site pain, percent of subjects ([1]; 0.75 mg SC (N = 100)): (6%)
Injection-site pruritus, number of subjects ([1]; 0.75 mg SC (N = 100)): 4
Injection-site pruritus, percent of subjects ([1]; 0.75 mg SC (N = 100)): (4%)
Nausea leading to withdrawal, number of subjects ([1]; 0.75 mg SC (N = 100)): 0
Nausea, number of subjects ([1]; 0.75 mg SC (N = 100)): 18
Nausea, percent of subjects ([1]; 0.75 mg SC (N = 100)): (18%)
Upper respiratory tract infection, number of subjects ([1]; 0.75 mg SC (N = 100)): 8
Upper respiratory tract infection, percent of subjects ([1]; 0.75 mg SC (N = 100)): (8%)
Vomiting leading to withdrawal, number of subjects ([1]; 0.75 mg SC (N = 100)): 0
patients discontinued based on adverse events ([1]; 1.25 mg): 4
patients discontinued based on preset blood pressure change criterion ([1]; 1.25 mg): 9
Any adverse event leading to withdrawal, number of subjects ([1]; 1.25 mg SC (N = 99)): 4
Any adverse event leading to withdrawal, percent of subjects ([1]; 1.25 mg SC (N = 99)): (4%)
Any adverse event, number of subjects ([1]; 1.25 mg SC (N = 99)): 61
Any adverse event, percent of subjects ([1]; 1.25 mg SC (N = 99)): (62%)
Flushing leading to withdrawal, number of subjects ([1]; 1.25 mg SC (N = 99)): 1
Flushing leading to withdrawal, percent of subjects ([1]; 1.25 mg SC (N = 99)): (1%)
Flushing, number of subjects ([1]; 1.25 mg SC (N = 99)): 14
Flushing, percent of subjects ([1]; 1.25 mg SC (N = 99)): (14%)
Headache, number of subjects ([1]; 1.25 mg SC (N = 99)): 9
Headache, percent of subjects ([1]; 1.25 mg SC (N = 99)): (9%)
Hypertension leading to withdrawal, number of subjects ([1]; 1.25 mg SC (N = 99)): 0
Injection-site pain, number of subjects ([1]; 1.25 mg SC (N = 99)): 6
Injection-site pain, percent of subjects ([1]; 1.25 mg SC (N = 99)): (6%)
Injection-site pruritus, number of subjects ([1]; 1.25 mg SC (N = 99)): 4
Injection-site pruritus, percent of subjects ([1]; 1.25 mg SC (N = 99)): (4%)
Nausea leading to withdrawal, number of subjects ([1]; 1.25 mg SC (N = 99)): 0
Nausea, number of subjects ([1]; 1.25 mg SC (N = 99)): 22
Nausea, percent of subjects ([1]; 1.25 mg SC (N = 99)): (22%)
Upper respiratory tract infection, number of subjects ([1]; 1.25 mg SC (N = 99)): 5
Upper respiratory tract infection, percent of subjects ([1]; 1.25 mg SC (N = 99)): (5%)
Vomiting leading to withdrawal, number of subjects ([1]; 1.25 mg SC (N = 99)): 1
Vomiting leading to withdrawal, percent of subjects ([1]; 1.25 mg SC (N = 99)): (1%)
patients discontinued based on adverse events ([1]; 1.75 mg): 8
patients discontinued based on preset blood pressure change criterion ([1]; 1.75 mg): 7
Any adverse event leading to withdrawal, number of subjects ([1]; 1.75 mg SC (N = 98)): 8
Any adverse event leading to withdrawal, percent of subjects ([1]; 1.75 mg SC (N = 98)): (8%)
Any adverse event, number of subjects ([1]; 1.75 mg SC (N = 98)): 67
Any adverse event, percent of subjects ([1]; 1.75 mg SC (N = 98)): (68%)
Flushing leading to withdrawal, number of subjects ([1]; 1.75 mg SC (N = 98)): 1
Flushing leading to withdrawal, percent of subjects ([1]; 1.75 mg SC (N = 98)): (1%)
Flushing, number of subjects ([1]; 1.75 mg SC (N = 98)): 17
Flushing, percent of subjects ([1]; 1.75 mg SC (N = 98)): (17%)
Headache, number of subjects ([1]; 1.75 mg SC (N = 98)): 14
Headache, percent of subjects ([1]; 1.75 mg SC (N = 98)): (14%)
Hypertension leading to withdrawal, number of subjects ([1]; 1.75 mg SC (N = 98)): 1
Hypertension leading to withdrawal, percent of subjects ([1]; 1.75 mg SC (N = 98)): (1%)
Injection-site pain, number of subjects ([1]; 1.75 mg SC (N = 98)): 7
Injection-site pain, percent of subjects ([1]; 1.75 mg SC (N = 98)): (7%)
Injection-site pruritus, number of subjects ([1]; 1.75 mg SC (N = 98)): 6
Injection-site pruritus, percent of subjects ([1]; 1.75 mg SC (N = 98)): (6%)
Nausea leading to withdrawal, number of subjects ([1]; 1.75 mg SC (N = 98)): 3
Nausea leading to withdrawal, percent of subjects ([1]; 1.75 mg SC (N = 98)): (3%)
Nausea, number of subjects ([1]; 1.75 mg SC (N = 98)): 24
Nausea, percent of subjects ([1]; 1.75 mg SC (N = 98)): (24%)
Upper respiratory tract infection, number of subjects ([1]; 1.75 mg SC (N = 98)): 4
Upper respiratory tract infection, percent of subjects ([1]; 1.75 mg SC (N = 98)): (4%)
Vomiting leading to withdrawal, number of subjects ([1]; 1.75 mg SC (N = 98)): 3
Vomiting leading to withdrawal, percent of subjects ([1]; 1.75 mg SC (N = 98)): (3%)
subjects discontinuing due to an adverse event ([1]; 1.75 mg subcutaneous dose): 8%
tolerability during the trial ([1]; 0.75-1.75 mg SC): well-tolerated
serious adverse events considered related to treatment ([1]; of 7 serious adverse events): none
subjects discontinuing from the study due to an adverse event, number [2, 6]: 16
subjects discontinuing from the study due to an adverse event, percent [2, 6]: 40%
subjects reporting at least one adverse event ([2]; intranasal, postmenopausal subjects): 100%
sexual desire and arousal compared to placebo ([2]; intranasal, premenopausal and postmenopausal women with FSAD, two Phase 2 trials): increase sexual desire and arousal compared to placebo
subjects discontinued due to hypertension, nausea, vomiting or myalgia ([2]; intranasal, premenopausal arm): 42.5%
subjects reporting at least one adverse event ([2]; intranasal, premenopausal subjects): 92.5%
pharmacodynamic effect (vaginal pulse amplitude) ([3]; 0.3 or 1.0 mg subcutaneous, compared to placebo or baseline): no apparent pharmacodynamic effect
pharmacodynamic effect (vaginal pulse amplitude) ([3]; 3 and 5 mg subcutaneous): statistically significant pharmacodynamic effect
subcutaneous doses at which a pharmacodynamics effect was seen ([3]; normal female volunteers): ≥ 3 mg
flushing incidence [4]: 15%
nausea incidence [4]: 19%
somnolence incidence [4]: 30%
vomiting incidence [4]: 10%
subjects experiencing vomiting (mild or moderate) ([5]; 7.5 mg dose level): 1 of 6
subjects experiencing vomiting (mild or moderate) ([5]; 5-mg dose level): 1 of 6
subjects experiencing vomiting (mild or moderate) ([5]; 10-mg dose level): 3 of 6
tolerability ([5]; single subcutaneous doses of 4 and 6 mg, male subjects with ED and preexisting hypertension): improved tolerability

Source: patent publication US10286034B2, “Uses of bremelanotide in therapy for female sexual dysfunction” (Palatin Technologies, Inc., priority 2012, dated 2019)
